# From US10732169B2, “Personalized healthcare P4 drug monitoring system and method” (eNano Health Limited, priority 2016, dated 2020)
# Key:
# [1] = LC/MS, all subjects, FIG. 15
# Procedure: In a third illustrative example, the detection of a HIV drug in saliva is conducted according to the claimed invention. […] Sample analysis hardware includes chromatography and mass spectrometry functionality and can additionally include genetic sequencing functionality.
# [2] = Keppra levels in dried spot saliva samples over time after taking the drug, LC/MS; assay type: in vivo; settings: two separate days, FIG. 14
# Procedure: FIGS. 9 to 14 further illustrate the detection of Keppra in saliva. Levetiracetam (Trade Name: Keppra), is a medication used to treat epilepsy. In the illustrative example, the saliva specimens are collected on 2 separate days. On each day, subject is asked to collect blood/saliva samples before taking Keppra (time=0 hour), and after taking the drug (time=1, 2, 4, 8 hours). Saliva samples are collected in both liquid and dried spot forms. Blood samples are collected in dried spot form and are stored at room temperature before transportation for analytical laboratory analysis using LC/MS.
# FIG. 13 is a graphical representation of Keppra levels using dried saliva comparatively measured. Graphical representation 1301 illustrates the comparison of dried saliva spot samples over two separate days.
# FIG. 14 is a graphical representation of Keppra levels using dried saliva comparatively measured. The half-life of Keppra is known to be 5-8 hours. […] Consequently, dried spot saliva samples reliably reflect clearance of Keppra from the body according to the claimed invention.
# [3] = known value; cited from earlier work
time after which Keppra level depleted by half [2],SMILES,detection of drug fragment ion in saliva [1],half-life [3]
–,Nc1nc(=O)n([C@@H]2CS[C@H](CO)O2)cc1F [FTC],detection of the FTC fragment ion,–
8 h,"CC[C@@H](C(N)=O)N1CCCC1=O [Keppra, Levetiracetam]",–,5 to 8 h
